Reference: article PMC9668969 (Nature Communications, 2022)

What was measured:
[1] = test system: WT ELIC; assay: Tryptophan fluorescence emission spectrum with and without agonist; assay type: biochemical, Erwinia chrysanthemi; conditions: WT 30 mM Cys
Experimental: To measure the tryptophan (Trp) fluorescence emission of ELIC, WT or W206F ELIC was diluted to 3 ml (0.02 mg/ml) and an emission spectrum was collected in a quartz fluorescence cell using a Fluoromax Plus Spectrofluorometer (Horiba Scientific). […] Trp fluorescence measurements with rapid mixing of agonist was carried out using the SX20 stopped-flow spectrofluorometer, outfitted with a 295 nm LED excitation source. Purified ELIC was diluted to 0.1 mg/ml in Trp Stopped-flow Buffer A (10 mM Tris pH 7.5, 100 mM NaCl, 0.05% DDM). A single mixing experiment was performed by mixing ELIC with equal volumes of Buffer A + propylamine. Propylamine was prepared at varying concentrations at 2x the final concentration. The instrument dead time was ~1 ms, enabling capture of most of the time course of change in Trp fluorescence. The time course of decrease in Trp fluorescence after rapid mixing with propylamine was fit to a single exponential to obtain a time constant for the rate of decrease and a measure of the extent of decrease. All replicates were taken from distinct samples.

[2] = test system: WT ELIC; conditions: without BaCl2; cited from earlier work

NCCS [cysteamine]
Tryptophan fluorescence emission intensity ([1]; wavelength 320): 804590 | Tryptophan fluorescence emission intensity ([1]; wavelength 321): 840110 | Tryptophan fluorescence emission intensity ([1]; wavelength 322): 860020 | Tryptophan fluorescence emission intensity ([1]; wavelength 323): 881470 | Tryptophan fluorescence emission intensity ([1]; wavelength 324): 898170 | Tryptophan fluorescence emission intensity ([1]; wavelength 325): 925090 | Tryptophan fluorescence emission intensity ([1]; wavelength 327): 958460 | Tryptophan fluorescence emission intensity ([1]; wavelength 328): 977560 | Tryptophan fluorescence emission intensity ([1]; wavelength 329): 1001430 | Tryptophan fluorescence emission intensity ([1]; wavelength 330): 1017700 | Tryptophan fluorescence emission intensity ([1]; wavelength 331): 1038960 | Tryptophan fluorescence emission intensity ([1]; wavelength 332): 1051130 | Tryptophan fluorescence emission intensity ([1]; wavelength 333): 1064180 | Tryptophan fluorescence emission intensity ([1]; wavelength 334): 1076000 | Tryptophan fluorescence emission intensity ([1]; wavelength 335): 1094750 | Tryptophan fluorescence emission intensity ([1]; wavelength 336): 1105230 | Tryptophan fluorescence emission intensity ([1]; wavelength 337): 1102570 | Tryptophan fluorescence emission intensity ([1]; wavelength 338): 1110270 | Tryptophan fluorescence emission intensity ([1]; wavelength 339): 1107370 | Tryptophan fluorescence emission intensity ([1]; wavelength 340): 1100850 | Tryptophan fluorescence emission intensity ([1]; wavelength 341): 1109610 | Tryptophan fluorescence emission intensity ([1]; wavelength 342): 1105480 | Tryptophan fluorescence emission intensity ([1]; wavelength 343): 1098150 | Tryptophan fluorescence emission intensity ([1]; wavelength 344): 1095000 | Tryptophan fluorescence emission intensity ([1]; wavelength 345): 1092160 | Tryptophan fluorescence emission intensity ([1]; wavelength 346): 1088360 | Tryptophan fluorescence emission intensity ([1]; wavelength 347): 1077030 | Tryptophan fluorescence emission intensity ([1]; wavelength 348): 1068840 | Tryptophan fluorescence emission intensity ([1]; wavelength 349): 1066310 | Tryptophan fluorescence emission intensity ([1]; wavelength 350): 1055290 | Tryptophan fluorescence emission intensity ([1]; wavelength 351): 1041270 | Tryptophan fluorescence emission intensity ([1]; wavelength 352): 1036270 | Tryptophan fluorescence emission intensity ([1]; wavelength 353): 1015310 | Tryptophan fluorescence emission intensity ([1]; wavelength 354): 1003150 | Tryptophan fluorescence emission intensity ([1]; wavelength 355): 990040 | Tryptophan fluorescence emission intensity ([1]; wavelength 356): 980580 | Tryptophan fluorescence emission intensity ([1]; wavelength 357): 950350 | Tryptophan fluorescence emission intensity ([1]; wavelength 358): 943630 | Tryptophan fluorescence emission intensity ([1]; wavelength 359): 918190 | Tryptophan fluorescence emission intensity ([1]; wavelength 360): 914380 | Tryptophan fluorescence emission intensity ([1]; wavelength 361): 899440 | Tryptophan fluorescence emission intensity ([1]; wavelength 362): 877520 | Tryptophan fluorescence emission intensity ([1]; wavelength 363): 850800 | Tryptophan fluorescence emission intensity ([1]; wavelength 364): 821470 | Tryptophan fluorescence emission intensity ([1]; wavelength 365): 795670 | Tryptophan fluorescence emission intensity ([1]; wavelength 366): 776390 | Tryptophan fluorescence emission intensity ([1]; wavelength 367): 752920 | Tryptophan fluorescence emission intensity ([1]; wavelength 368): 732340 | Tryptophan fluorescence emission intensity ([1]; wavelength 369): 720880 | Tryptophan fluorescence emission intensity ([1]; wavelength 370): 691880 | Tryptophan fluorescence emission intensity ([1]; wavelength 371): 677380 | Tryptophan fluorescence emission intensity ([1]; wavelength 372): 661530 | Tryptophan fluorescence emission intensity ([1]; wavelength 373): 643370 | Tryptophan fluorescence emission intensity ([1]; wavelength 374): 622610 | Tryptophan fluorescence emission intensity ([1]; wavelength 375): 605580 | Tryptophan fluorescence emission intensity ([1]; wavelength 376): 584360 | Tryptophan fluorescence emission intensity ([1]; wavelength 377): 567600 | Tryptophan fluorescence emission intensity ([1]; wavelength 378): 558770 | Tryptophan fluorescence emission intensity ([1]; wavelength 379): 531360 | Tryptophan fluorescence emission intensity ([1]; wavelength 380): 517880 | Tryptophan fluorescence emission intensity ([1]; wavelength 381): 499820 | Tryptophan fluorescence emission intensity ([1]; wavelength 382): 482620 | Tryptophan fluorescence emission intensity ([1]; wavelength 383): 465090 | Tryptophan fluorescence emission intensity ([1]; wavelength 384): 451150 | Tryptophan fluorescence emission intensity ([1]; wavelength 385): 428430 | Tryptophan fluorescence emission intensity ([1]; wavelength 386): 420060 | Tryptophan fluorescence emission intensity ([1]; wavelength 387): 400770 | Tryptophan fluorescence emission intensity ([1]; wavelength 388): 385350 | Tryptophan fluorescence emission intensity ([1]; wavelength 389): 381600 | Tryptophan fluorescence emission intensity ([1]; wavelength 390): 360170 | Tryptophan fluorescence emission intensity ([1]; wavelength 391): 346400 | Tryptophan fluorescence emission intensity ([1]; wavelength 392): 340740 | Tryptophan fluorescence emission intensity ([1]; wavelength 393): 327660 | Tryptophan fluorescence emission intensity ([1]; wavelength 394): 316470 | Tryptophan fluorescence emission intensity ([1]; wavelength 395): 301980 | Tryptophan fluorescence emission intensity ([1]; wavelength 396): 291020 | Tryptophan fluorescence emission intensity ([1]; wavelength 397): 277640 | Tryptophan fluorescence emission intensity ([1]; wavelength 398): 265940 | Tryptophan fluorescence emission intensity ([1]; wavelength 399): 253020 | Tryptophan fluorescence emission intensity ([1]; wavelength 400): 247580 | Tryptophan fluorescence emission intensity ([1]; wavelength 401): 237600 | Tryptophan fluorescence emission intensity ([1]; wavelength 402): 233050 | Tryptophan fluorescence emission intensity ([1]; wavelength 403): 223960 | Tryptophan fluorescence emission intensity ([1]; wavelength 404): 210930 | Tryptophan fluorescence emission intensity ([1]; wavelength 405): 205250 | Tryptophan fluorescence emission intensity ([1]; wavelength 406): 197950 | Tryptophan fluorescence emission intensity ([1]; wavelength 407): 191160 | Tryptophan fluorescence emission intensity ([1]; wavelength 408): 187280 | Tryptophan fluorescence emission intensity ([1]; wavelength 409): 181840 | Tryptophan fluorescence emission intensity ([1]; wavelength 410): 170220 | Tryptophan fluorescence emission intensity ([1]; wavelength 411): 167400 | Tryptophan fluorescence emission intensity ([1]; wavelength 412): 162070 | Tryptophan fluorescence emission intensity ([1]; wavelength 413): 154720 | Tryptophan fluorescence emission intensity ([1]; wavelength 414): 150730 | Tryptophan fluorescence emission intensity ([1]; wavelength 415): 146270 | Tryptophan fluorescence emission intensity ([1]; wavelength 416): 141050 | Tryptophan fluorescence emission intensity ([1]; wavelength 417): 136250 | Tryptophan fluorescence emission intensity ([1]; wavelength 418): 131260 | Tryptophan fluorescence emission intensity ([1]; wavelength 419): 129580 | Tryptophan fluorescence emission intensity ([1]; wavelength 420): 125310 | EC50 [2]: 1 to 2 mM
